Legend:
[1] = system: Human HaCaT keratinocyte cells; assay: Protection against polycyclic aromatic hydrocarbons (BaP) in the presence of UVA, neutral red uptake; format: cell-based; settings: for % Protection against BaP: individual active, UVA-BaP
Text: Polycyclic aromatic hydrocarbons (PAHs) are a class of mutagenic and tumorigenic environmental contaminants. PAHs are widespread in the environment produced from incomplete combustion of natural materials and tobacco smoke (Connell, D. W.; Hawker, D. W.; Warne, M. J.; Vowles. P. P.; Polycyclic aromatic hydrocarbons (PAHs). In Introduction into Environmental Chemistry (McCombs. K., and Starkweather, A. W., eds), 1997, pp. 205-217, CRC Press LLC, Boca Raton, Fla. 2. Shaw, G. R.; Connell, D. W.: Prediction and monitoring of the carcinogenicity of polycyclic aromatic compounds (PACs). Rev. Environ. Contam. Toxic., 1994, 135, 1-62.) PAHs themselves are biologically inert and require metabolic activation. in order to exert genotoxicity PAHs absorb light in the UVA region, react with oxygen or other molecules to generate reactive intermediates (Yu H, Xia Q, Yan J, et al. Photoirradiation of polycyclic aromatic hydrocarbons with UVA light—a pathway leading to the generation of reactive oxygen species, lipid peroxidation, and dna damage. Int J Environ Res Public Health. 2006; 3:348-354) Thus, PAHs can be “activated” by light irradiation to cause photo-induced cytotoxicity. Thus photoirradiation of PAHs with UVA irradiation represents a pollutant which causes cytotoxicity and DNA damage.
Human HaCaT keratinocyte cells were seeded at a density of 1×10^4 cells/well in 96 well plates. Cells were allowed to adhere for overnight. They were pretreated with Benzo(a)pyrene a PAH at 0.5 mM concentration along with different concentrations of plant actives for 50 minutes, exposed to UVA at an intensity of 17 Joules m2. Cells were washed with sterile buffer and fresh culture medium (2% of FBS) with respective concentrations of plant actives were added followed by incubation for 24 hours at 37° C. in a CO2 incubator. Neutral Red (25 μg/mL) (3-amino-7-dimethylamino-2-methylphenazine hydrochloride), was added to the cells for 3 hours. The uptake of NR by the cells was determined by lysing the cells and reading the absorbance at 540 nm in a Tecan microplate reader (TECAN Ltd, Männedorf, Switzerland)

[2] = system: Human HaCaT keratinocyte cells/mouse fibroblast cells; assay: ROS assay (DCFH-DA) after exposure to heavy metals, UVA or UVB; format: cell-based
Text: A cell permeable, non-fluorescent dye, 2′,7′-dichlorofluorescein diacetate (DCFH-DA) enters the cell and the acetate group on DCFH-DA is cleaved by cellular esterases, trapping the non-fluorescent DCFH inside the cell. Subsequent oxidation by reactive oxygen species generated in the cells, yields the fluorescent DCF which can be detected at 485/520 Ex:Em wavelength. The scavenging activity of sample is indicated by the decrease in fluorescence when compared to the control without antioxidant.
Human HaCaT keratinocyte cells/mouse fibroblast cells were maintained in DMEM containing 25 mM glucose with 10% heat-inactivated fetal calf serum with antibiotics at 37° C. and 5% CO2. When the cells were 70-80% confluent, they were trypsinized, washed and seeded in 96 well plates at a density seeded at a density of 5×10^4 cells/well. Cells were allowed to adhere for overnight. Cells were pretreated with varying non toxic concentrations of different plant actives for 60 minutes before exposing to the pollutant. Cells were exposed to the following pollutants in the presence of plant actives.
UVA intensity of 15 Joules/m2 for 60 mins,
UV-B intensity of 4.6 Joule/m2 for 10 mins
Heavy metals (Cobalt chloride and Lead Nitrate at 0.25 mm each) for 6 hours
Intracellular ROS was determined after the specific treatment period by adding freshly prepared DCFH-DA reagent to all the wells at a concentration of 10 μg/well and incubated at 37° C. for 30 mins. The fluorescence was recorded at a wavelength of 485:520 (Ex:Em) nm in BMG FluoStar Optima microplate reader.

[3] = system: superoxide dismutase (SOD); assay: Antioxidant assay: superoxide dismutase (SOD) activity in cell lysate, WST-1 method; format: cell-based, Human; settings: UV-exposed keratinocytes
Description: (§1) Cellular anti-oxidants are depleted by pollutants. The ability of plant actives to increase these anti-oxidant enzymes in the cells was studied in vitro. Human HaCaT keratinocyte cells were seeded at a density of 5×10^5 cells, well in 6 well plates. The cells were pretreated for one hour with plant actives and exposed to UVA intensity of 17 Joules/m2 for 50 mins. Cells were washed with sterile buffer and fresh culture medium (2% of FBS) with respective concentrations of plant actives were added followed by incubation for 24 hours at 37° C. in a CO2 incubator. Cell lysate were prepared and superoxide dismutase (SOD) levels and glutathione peroxidase (GPx) were estimated.
The activity of SOD in the cell lysate was measured by WST-1 method using a kit as per the manufacturer's instructions (Elabsciences). Xanthine Oxidase (XO) can catalyze WST-1 react with O2. —to generate a water-soluble formazan dye. SOD can catalyze the disproportionation of superoxide anions, so the reaction can be inhibited by SOD, and the activity of SOD is negatively correlated with the amount of formazan dye. Therefore, the activity of SOD can be determined by the colorimetric analysis of WST-1 products.

[4] = system: glutathione peroxidase (GPx); assay: Antioxidant assay: glutathione peroxidase (GPx) activity in cell lysate; format: cell-based, Human; settings: UV-exposed keratinocytes
Description: as §1
Glutathione peroxidase activity was determined according to the method of Hafeman et al. (1974). Glutathione peroxidase degrades H2O2 in presence of glutathione (GSH) thereby depleting it. GSH remaining is measured using DTNB, which gives a colored complex.
To a volume of 100 μl of cell lysate, 0.2 mM GSH, 0.05 mM H2O2 and 1 mM NaN3 in a total volume of 250 μl with 1M sodium phosphate buffer (pH 7.0). The reaction was incubated at 37° C. for 10 min and stopped by adding 50 μl of 25% TCA. […] The intensity of yellow color formation was measured at 412 nm after incubation at 37° C. for 10 min The enzyme activity was expressed as units/mg protein.

[5] = system: IL-8; assay: Anti-inflammatory activity: IL8 in assay supernatants by ELISA; format: cell-based
Description: IL8 in the assay supernatants were measured using Duoset ELISA kit (R & D systems, Cat No. DY208)

[6] = DPPH free radical scavenging assay
Text: Reactive oxygen species (ROS) including superoxide, hydroxyl, peroxyl, and alkoxy radicals are produced by normal metabolic processes. Under normal condition, these free radicals are scavenged by the cellular anti-oxidants and remain in equilibrium. Radiations, toxins and pollutants increase the ROS which can induce oxidative damage to biomolecules such as lipids, nucleic acids, proteins and carbohydrates. These ROS induced damage causes skin irritation, inflammation, ageing, cancer and many other diseases, α, α-diphenyl-β-picrylhydrazyl (DPPH) free radical scavenging method is one of the first approach for evaluating the antioxidant potential of a compound.
Reagents: 0.1 mM of DPPH in ethanol, 0.1M phosphate buffered saline (pH 7.4)
DPPH is a stable free radical in a methanolic solution with an absorbance at 520 nm. If the free radicals are scavenged by an anti oxidant molecule, the resulting solution appears yellow. The hydrogen atoms or electrons donation ability of the extracellular metabolite was measured by the bleaching of purple coloured DPPH methanol solution.
Different concentrations of various plant actives were diluted in methanol. For the DPPH radical scavenging assay, 20 μL of different concentration of sample was mixed with 180 μL of DPPH in methanol in a 96 well plate following the method as described earlier (Clarke et al., 2013). The plate was kept in the dark for 15 min. after which the absorbance of the solution was measured at 540 nm using a microplate reader (TECAN Ltd, Männedorf. Switzerland). Blanks (DMSO, methanol) and standard (TBHQ solution in methanol) were recorded simultaneously. The extracts were screened with variable concentrations to establish the inhibition concentration (IC50, the concentration reducing DPPH absorbance by 50%).
The free radical scavenging activity was calculated as follows.
[formula] Where, B=Absorbance of reference solution (OD of DPPH) C=Absorbance of reference solution blank (OD of Methanol only) S=Absorbance of test solution C=Absorbance of test solution blank

[7] = system: Collagenase Type IV from Clostridium histolyticum; assay: Anti-collagenase activity (DQ gelatin, fluorescence); format: biochemical
Text: Collagenase is one of the matrix metalloprotease, which digest collagen and other components of the extra cellular matrix (ECM). The ECM serves as a scaffold to stabilize the skin structure, and also helps in proliferation and metabolic functions of the skin cells. Loss of collagen leads to wrinkles and sagging of skin. The principle of the assay of collagenase inhibition is based on the fact that the substrate DQ™ gelatine is conjugated to fluorecein—a fluorescent compound. In DQ™ gelatine, fluorescence is quenched. DQ™ gelatine is efficiently digested by collagenases to yield a fluorescent compound which can be measured. The increase in fluorescence is proportional to enzyme activity. In the presence of an anti-collagenase compound the amount of fluorescence will be decreased for a fixed concentration of enzyme and substrate.
Collagenase Enzyme assay kit (Enzchek® collagenase, gelatinase assay kit, Invitrogen, USA)
The assay was performed in a 96 well black microtitre plate. Type IV from Clostridium histolyticum with DQ gelatin as substrate was used for the assay. Different concentrations of various plant actives were pre incubated with 20 µl of gelatin substrate (12.5 µg/ml). 100 µl of the Collagenase enzyme solution (final concentration—0.4 U/ml) was added and the fluorescence intensity was measured at […] after 30 minutes. Enzyme activity of control (buffer) was recorded
The percentage inhibition is calculated as follows:—
[formula] B—Fluorescence in the presence of enzyme. BC—Fluorescence in the absence of enzyme activity T—Fluorescence of enzyme activity in the presence of inhibitor TC—Fluorescence of the inhibitor alone

Oc1cc(O)cc(/C=C/c2ccc(O)cc2O)c1 [Oxyresveratrol, oxyresveratrol]
protection against UVA+BaP ([1]; concentrations of 3.12-12.5 μg/ml): dose dependant protection | % Protection against BaP ([1]; 6.25 μg/ml): 28.04% | ROS generated by exposure to UVA ([2]; UVA 60 mins): reduced the ROS | ROS generated by exposure to UVB ([2]; UVB 10 mins): reduced the ROS | ROS generated by exposure to heavy metals ([2]; heavy metals (cobalt chloride and lead nitrate) 6 hours): reduced the ROS | superoxide dismutase activity [3]: restored normal enzyme activity | superoxide dismutase activity ([3]; listed as 95% oxyresveratrol): dose dependant increase | glutathione peroxidase activity [4]: restored normal enzyme activity | glutathione peroxidase activity ([4]; listed as 95% oxyresveratrol): dose dependant decrease | inhibition at 3.125 µg/mL ([5]; 3.125 μg/ml): 13.3% | inhibition at 6.25 µg/mL ([5]; 6.25 μg/ml): 18.4% | DPPH radical scavenging % inhibition ([6]; 0.3125 μg/ml): 22.9% | DPPH radical scavenging % inhibition ([6]; 0.625 μg/ml): 42.07% | DPPH radical scavenging % inhibition ([6]; 1.25 μg/ml): 68.63% | DPPH radical scavenging % inhibition ([6]; 2.5 μg/ml): 77.89% | DPPH radical scavenging % inhibition ([6]; 5.00 μg/ml): 84.14% | DPPH radical scavenging IC50 ([6]; concentration reducing DPPH absorbance by 50%): 0.61 µg/mL | Anti-collagenase activity % inhibition ([7]; 12.5 μg/ml): 0.05% | Anti-collagenase activity % inhibition ([7]; 25 μg/ml): 9.93% | Anti-collagenase activity % inhibition ([7]; 50 μg/ml): 41.19% | Anti-collagenase activity % inhibition ([7]; 100 μg/ml): 80.92%

COc1cc(/C=C/c2ccc(O)cc2)cc(OC)c1 [Pterostilbene, pterostilbene]
% Protection against BaP ([1]; 2.5 μgml): No activity

COc1cc(CCC(=O)CC(=O)CCc2ccc(O)c(OC)c2)ccc1O [Tetrahydrocurcumin, tetrahydrocurcumin]
% Protection against BaP ([1]; 5 μg/ml): No activity | inhibition at 12.5 µg/mL ([5]; read-out: % inhibition of IL-8): 6.07% | inhibition at 25 µg/mL ([5]; read-out: % inhibition of IL-8): 11.7%

From US11351102B2, “Plant actives and their anti-pollution effects thereof” (SAMI-SABINSA GROUP LIMITED, priority 2019, dated 2022)
